{"source": "the NIST ThermoML archive (doi:10.1021/acs.jced.6b00040)", "conditions": "Liquid, Ebulliometric method (Recirculating still)", "note": "Numbers after ± are expanded uncertainties.", "data": [{"smiles": "CC(=O)OC(C)C", "note": "[1-methylethyl ethanoate]", "values": [{"measurement": "vapor or sublimation pressure", "setting": "361.45 K", "result": "101.3 ± 0.8", "unit": "kPa"}]}, {"smiles": "CC(C)O", "note": "[propan-2-ol]", "values": [{"measurement": "vapor or sublimation pressure", "setting": "355.33 K", "result": "101.3 ± 0.8", "unit": "kPa"}]}, {"smiles": "C[S+](C)[O-]", "note": "[dimethyl sulfoxide]", "values": [{"measurement": "vapor or sublimation pressure", "setting": "463.38 K", "result": "101.3 ± 0.8", "unit": "kPa"}]}]}
